Values belong to the compound of their own block, whether it stands above or below them.
Key:
[1] = tested on: FAK; details: read-out: FAK inhibitor IC50; cited from earlier work
[2] = target: thymidylate synthase (TS) (Homo sapiens, UniProt P04818); assay: In vitro thymidylate synthase enzymatic assay; format: biochemical; details: compared with pemetrexed
[3] = tested on: PC-3 cells; assay: Cell cycle analysis by PI staining, flow cytometry; format: cell-based, human; details: PC-3, at pre calculated IC50, 48 h
[4] = tested on: PC-3 cells; assay: Apoptosis analysis, Annexin V-propidium iodide flow cytometry; format: cell-based, human; details: PC-3, 48 h

Chain of thymidylate synthase (TS) (P04818 whole entry): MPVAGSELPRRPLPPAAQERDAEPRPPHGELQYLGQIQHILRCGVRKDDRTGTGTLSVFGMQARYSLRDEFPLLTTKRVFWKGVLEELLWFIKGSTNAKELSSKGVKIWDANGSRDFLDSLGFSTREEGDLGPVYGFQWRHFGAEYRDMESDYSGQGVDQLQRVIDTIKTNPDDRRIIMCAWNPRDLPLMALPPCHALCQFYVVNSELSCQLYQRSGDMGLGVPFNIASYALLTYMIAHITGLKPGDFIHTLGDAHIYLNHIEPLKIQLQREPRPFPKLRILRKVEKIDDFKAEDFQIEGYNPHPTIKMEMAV

Compound: N.N.[Cl][Pt][Cl] [Cisplatin]
IC50 [1]: 8.6 µM

TS inhibition in words [2]: comparable TS repression to pemetrexed
Compound: C=CCc1ccc(OCc2nn(CN3CCCC3)c(=S)o2)c(OC)c1 [Compound 15, 5-((4-Allyl-2-methoxyphenoxy)methyl)-3-(pyrrolidin-1-ylmethyl)-1,3,4-oxadiazole-2(3H) Thione]

Compound: C=CCc1ccc(OCc2nn(CN3CCOCC3)c(=S)o2)c(OC)c1 [Compound 17, 5-((4-Allyl-2-methoxyphenoxy)methyl)-3-(morpholinomethyl)-1,3,4-oxadiazole-2(3H)-thione]
percentage of cell population at G1 phase [3]: 29.30% | percentage of cell population at G2 phase [3]: 8.61% | percentage of cell population at the S phase [3]: 62.07% | necrotic cells (R1, % Parent) [4]: 3.56%
